# Assay results as given in ChEMBL document CHEMBL1133057, “Synthesis and in vitro antibacterial activity of 3-[N-methyl-N-(3-methyl-1,3-thiazolium-2-yl)aminolmethyl cephalosporin derivatives” (2000).
# How the values were obtained:
# Escherichia coli [1] = experiment: Compound was tested in vitro for its minimum inhibitory concentration by serial 2-fold agar dilution Muller Hinton method against Escherichia coli 1507E; assay type: functional
# Escherichia coli [2] = experiment: Compound was tested in vitro for its minimum inhibitory concentration by serial 2-fold agar dilution Muller Hinton method against Escherichia coli DC 0; assay type: functional
# Escherichia coli [3] = experiment: Compound was tested in vitro for its minimum inhibitory concentration by serial 2-fold agar dilution Muller Hinton method against Escherichia coli DC 2; assay type: functional
# Escherichia coli [4] = experiment: Compound was tested in vitro for its minimum inhibitory concentration by serial 2-fold agar dilution Muller Hinton method against Escherichia coli O 55; assay type: functional
# Enterobacter cloacae [5] = experiment: Compound was tested in vitro for its minimum inhibitory concentration by serial 2-fold agar dilution Muller Hinton method against Enterobacter cloacae P99; assay type: functional
# Klebsiella oxytoca = experiment: Compound was tested in vitro for its minimum inhibitory concentration by serial 2-fold agar dilution Muller Hinton method against Klebsiella oxytoca 1082 E; assay type: functional
# Klebsiella aerogenes = experiment: Compound was tested in vitro for its minimum inhibitory concentration by serial 2-fold agar dilution Muller Hinton method against Klebsiella aerogenes 1522 E; assay type: functional
# Pseudomonas aeruginosa [6] = experiment: Compound was tested in vitro for its minimum inhibitory concentration by serial 2-fold agar dilution Muller Hinton method against Pseudomonas aeruginosa 1592 E; assay type: functional
# Pseudomonas aeruginosa [7] = experiment: Compound was tested in vitro for its minimum inhibitory concentration by serial 2-fold agar dilution Muller Hinton method against Pseudomonas aeruginosa 1771 M; assay type: functional
# Staphylococcus aureus [8] = experiment: Compound was tested in vitro for its minimum inhibitory concentration by serial 2-fold agar dilution Muller Hinton method against Staphylococcus aureus 503; assay type: functional
# Staphylococcus aureus [9] = experiment: Compound was tested in vitro for its minimum inhibitory concentration by serial 2-fold agar dilution Muller Hinton method against Staphylococcus aureus SG511; assay type: functional
# Staphylococcus aureus [10] = experiment: Compound was tested in vitro for its minimum inhibitory concentration by serial 2-fold agar dilution Muller Hinton method against Staphylococcus aureus 285; assay type: functional
# Streptococcus pyogenes [11] = experiment: Compound was tested in vitro for its minimum inhibitory concentration by serial 2-fold agar dilution Muller Hinton method against Streptococcus pyogenes 8b; assay type: functional
# Streptococcus pyogenes [12] = experiment: Compound was tested in vitro for its minimum inhibitory concentration by serial 2-fold agar dilution Muller Hinton method against Streptococcus pyogenes A 308; assay type: functional
# Streptococcus pyogenes [13] = experiment: Compound was tested in vitro for its minimum inhibitory concentration by serial 2-fold agar dilution Muller Hinton method against Streptococcus pyogenes A77; assay type: functional
# Pseudomonas aeruginosa [14] = experiment: Compound was tested in vitro for its minimum inhibitory concentration by serial 2-fold agar dilution Muller Hinton method against Pseudomonas aeruginosa 1771; assay type: functional
# Salmonella typhimurium = experiment: Compound was tested in vitro for its minimum inhibitory concentration by serial 2-fold agar dilution Muller Hinton method against Salmonella Typhimurium; assay type: functional, Salmonella enterica subsp. enterica serovar Typhimurium; details: Salmonella enterica
# Enterobacter cloacae [15] = experiment: Compound was tested in vitro for its minimum inhibitory concentration by serial 2-fold agar dilution Muller Hinton method against Enterobacter cloacae 1321; assay type: functional
# Escherichia coli [16] = experiment: Compound was tested in vitro for its minimum inhibitory concentration by serial 2-fold agar dilution Muller Hinton method against Escherichia coli TEM; assay type: functional
# Pseudomonas aeruginosa [17] = experiment: Compound was tested in vitro for its minimum inhibitory concentration by serial 2-fold agar dilution Muller Hinton method against Pseudomonas aeruginosa 9027; assay type: functional
SMILES,MIC (Escherichia coli [1]),MIC (Escherichia coli [2]),MIC (Escherichia coli [3]),MIC (Escherichia coli [4]),MIC (Enterobacter cloacae [5]),MIC (Klebsiella oxytoca),MIC (Klebsiella aerogenes),MIC (Pseudomonas aeruginosa [6]),MIC (Pseudomonas aeruginosa [7]),MIC (Staphylococcus aureus [8]),MIC (Staphylococcus aureus [9]),MIC (Staphylococcus aureus [10]),MIC (Streptococcus pyogenes [11]),MIC (Streptococcus pyogenes [12]),MIC (Streptococcus pyogenes [13]),MIC (Pseudomonas aeruginosa [14]),MIC (Salmonella typhimurium),MIC (Enterobacter cloacae [15]),MIC (Escherichia coli [16]),MIC (Pseudomonas aeruginosa [17])
C=CCO/N=C(\C(=O)NC1C(=O)N2C(C(=O)[O-])=C(CN(C)c3sc(C(=O)OCC)c(C)[n+]3C)CSC12)c1csc(N)n1 (stereo not given),0.098 µg/mL,0.098 µg/mL,0.025 µg/mL,0.025 µg/mL,25 µg/mL,6.25 µg/mL,0.049 µg/mL,12.5 µg/mL,0.391 µg/mL,0.391 µg/mL,0.781 µg/mL,1.56 µg/mL,50 µg/mL,0.013 µg/mL,0.013 µg/mL,3.12 µg/mL,0.049 µg/mL,0.025 µg/mL,0.098 µg/mL,25 µg/mL
CO/N=C(\C(=O)NC1C(=O)N2C(C(=O)[O-])=C(CN(C)c3scc(C)[n+]3C)CSC12)c1csc(N)n1 (stereo not given),0.049 µg/mL,0.049 µg/mL,0.049 µg/mL,0.025 µg/mL,25 µg/mL,6.25 µg/mL,0.049 µg/mL,25 µg/mL,1.56 µg/mL,0.781 µg/mL,0.781 µg/mL,1.56 µg/mL,> 100 µg/mL,0.013 µg/mL,0.004 µg/mL,12.5 µg/mL,0.049 µg/mL,0.013 µg/mL,0.049 µg/mL,25 µg/mL
CO/N=C(\C(=O)NC1C(=O)N2C(C(=O)[O-])=C(CN(C)c3sc(C)c(C)[n+]3C)CSC12)c1csc(N)n1 (stereo not given),0.049 µg/mL,0.049 µg/mL,0.098 µg/mL,0.025 µg/mL,12.5 µg/mL,6.25 µg/mL,0.098 µg/mL,50 µg/mL,1.56 µg/mL,0.781 µg/mL,1.56 µg/mL,1.56 µg/mL,> 100 µg/mL,0.013 µg/mL,0.007 µg/mL,25 µg/mL,0.098 µg/mL,0.013 µg/mL,0.049 µg/mL,50 µg/mL
CO/N=C(\C(=O)N[C@@H]1C(=O)N2C(C(=O)[O-])=C(C[n+]3cccc4c3CCC4)CS[C@H]12)c1csc(N)n1 [CEFPIROME],0.025 µg/mL,0.013 µg/mL,0.049 µg/mL,0.025 µg/mL,3.12 µg/mL,1.56 µg/mL,0.025 µg/mL,1.56 µg/mL,0.391 µg/mL,0.098 µg/mL,0.391 µg/mL,0.781 µg/mL,1.56 µg/mL,0.007 µg/mL,0.007 µg/mL,0.781 µg/mL,0.025 µg/mL,0.013 µg/mL,0.049 µg/mL,3.12 µg/mL

# The remaining compounds from weak to strong by MIC (Escherichia coli [1]), led by results:
MIC (Escherichia coli [1]),MIC (Escherichia coli [2]),MIC (Escherichia coli [3]),MIC (Escherichia coli [4]),MIC (Enterobacter cloacae [5]),MIC (Klebsiella oxytoca),MIC (Klebsiella aerogenes),MIC (Pseudomonas aeruginosa [6]),MIC (Pseudomonas aeruginosa [7]),MIC (Staphylococcus aureus [8]),MIC (Staphylococcus aureus [9]),MIC (Staphylococcus aureus [10]),MIC (Streptococcus pyogenes [11]),MIC (Streptococcus pyogenes [12]),MIC (Streptococcus pyogenes [13]),MIC (Pseudomonas aeruginosa [14]),MIC (Salmonella typhimurium),MIC (Enterobacter cloacae [15]),MIC (Escherichia coli [16]),MIC (Pseudomonas aeruginosa [17]),SMILES
0.195 µg/mL,0.098 µg/mL,0.025 µg/mL,0.049 µg/mL,6.25 µg/mL,3.12 µg/mL,0.098 µg/mL,25 µg/mL,0.391 µg/mL,0.195 µg/mL,0.391 µg/mL,0.781 µg/mL,25 µg/mL,0.013 µg/mL,0.007 µg/mL,6.25 µg/mL,0.098 µg/mL,0.049 µg/mL,0.195 µg/mL,25 µg/mL,CCO/N=C(\C(=O)NC1C(=O)N2C(C(=O)[O-])=C(CN(C)c3sc4c([n+]3C)CCCC4)CSC12)c1csc(N)n1 (stereo not given)
0.195 µg/mL,0.195 µg/mL,0.025 µg/mL,0.049 µg/mL,25 µg/mL,12.5 µg/mL,0.098 µg/mL,12.5 µg/mL,0.195 µg/mL,0.195 µg/mL,0.391 µg/mL,0.781 µg/mL,25 µg/mL,0.013 µg/mL,0.007 µg/mL,6.25 µg/mL,0.098 µg/mL,0.098 µg/mL,0.195 µg/mL,25 µg/mL,C=CCO/N=C(\C(=O)NC1C(=O)N2C(C(=O)[O-])=C(CN(C)c3scc(C)[n+]3C)CSC12)c1csc(N)n1 (stereo not given)
0.025 µg/mL,0.025 µg/mL,0.013 µg/mL,0.007 µg/mL,100 µg/mL,1.56 µg/mL,0.025 µg/mL,12.5 µg/mL,0.098 µg/mL,0.781 µg/mL,1.56 µg/mL,3.12 µg/mL,100 µg/mL,0.007 µg/mL,0.002 µg/mL,3.12 µg/mL,0.025 µg/mL,0.007 µg/mL,0.025 µg/mL,25 µg/mL,CO/N=C(\C(=O)N[C@@H]1C(=O)N2C(C(=O)O)=C(COC(C)=O)CS[C@H]12)c1csc(N)n1 [CEFOTAXIME]
